For orientation: pKi means −log10 of the Ki, conventionally taken in molar units.

pKi: −log10 of the molar value.

In ChEMBL document CHEMBL1131661, “Use of the Suzuki reaction for the synthesis of aryl-substituted heterocycles as corticotropin-releasing hormone (CRH) antagonists” (Bioorg Med Chem Lett, 1999) one finds Ki data, which are given here for twelve compounds.

The assay concerns the target T1, Corticotropin-releasing factor receptor 1 (Homo sapiens, UniProt P34998).
T1 sequence (P34998 whole entry): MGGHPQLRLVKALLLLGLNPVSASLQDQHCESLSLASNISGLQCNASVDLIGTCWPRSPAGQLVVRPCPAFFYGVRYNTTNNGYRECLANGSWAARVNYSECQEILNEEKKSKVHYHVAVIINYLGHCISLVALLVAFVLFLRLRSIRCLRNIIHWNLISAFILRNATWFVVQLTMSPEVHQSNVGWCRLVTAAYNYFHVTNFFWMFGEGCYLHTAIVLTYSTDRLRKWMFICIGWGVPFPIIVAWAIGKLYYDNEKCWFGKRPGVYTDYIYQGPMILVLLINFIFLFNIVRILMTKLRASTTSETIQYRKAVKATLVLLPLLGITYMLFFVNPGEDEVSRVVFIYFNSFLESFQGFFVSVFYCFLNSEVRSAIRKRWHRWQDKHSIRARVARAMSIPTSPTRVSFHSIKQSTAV
The assay is described as follows: Antagonistic activity for Corticotropin releasing factor receptor 1. In kind it is functional.
Compound `CCN(CC1CC1)c1nc(C)nc(Nc2c(Cl)cc(Cl)cc2Cl)c1C` gave a pKi of 8.70. The value for `COc1cc(Br)c(-n2c(C)nc3c(-c4ccccc4C(F)(F)F)nc(C)nc32)c(OC)c1` was 7.49; that for `CCN(c1nc(C)nc(-c2ccccc2C(F)(F)F)n1)c1ccc(C(C)C)cc1Br` was 8.26; that for `Cc1cc(C)c(-n2c(C)c(C)c3c(-c4ccccc4C(F)(F)F)nc(C)nc32)c(C)c1` was 8.01. `COc1cc(Br)c(Nc2nc(C)nc(-c3ccccc3C(F)(F)F)c2[N+](=O)[O-])c(OC)c1` showed a pKi of 7.64.

In turn, `COc1cc(Br)c(-n2nnc3c(-c4ccccc4C(F)(F)F)nc(C)nc32)c(OC)c1` showed a pKi of 7.67.

Compound `Cc1cc(C)c(-n2nnc3c(-c4ccccc4C(F)(F)F)nc(C)nc32)c(C)c1` showed a pKi of 6.77.

Compound `COc1cc(Br)c(-n2c(=O)n(C)c3c(-c4ccccc4C(F)(F)F)nc(C)nc32)c(OC)c1` showed a pKi of 7.02. The value for `COc1cc(Br)c(-n2c(=O)[nH]c3c(-c4ccccc4C(F)(F)F)nc(C)nc32)c(OC)c1` was 6.69; that for `COc1cc(Br)c(Nc2nc(C)nc(-c3ccccc3C(F)(F)F)c2N)c(OC)c1` was 7.22; that for `CCCCN(CC)c1nc(C)nc2c1nnn2-c1c(Br)cc(OC)cc1OC` was 8.46. The value for `CSc1nn(-c2c(Cl)cc(Cl)cc2Cl)c2nc(C)nc(-c3ccccc3C(F)(F)F)c12` was 7.48.
